# Test results published in patent US20120129833A1, “CYCLIC KETOENOLS FOR THERAPY” (BAYER PHARMA AKTIENGESELLSCHAFT, priority 2010, published 2012).
# Legend:
# [1] = biological target: T1, recombinant human ACC1 (acetyl-CoA carboxylase 1) (Homo sapiens, UniProt Q13085); assay: Human ACC1 enzyme assay (HTRF ADP detection); format: biochemical; conditions: 50 μM ATP, 20 μM acetyl-CoA, 15 min pre-incubation, 20 min at 22° C.; read-out: ACC 1 IC50;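 note: ADP by-product quantified by competitive HTRF immunoassay with europium cryptate anti-ADP antibody and d2-labelled ADP, read after 1 h binding at 22 °C, enzyme near 2.5 ng/µl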
# T1 construct: NM_198834, amino acids 39—end; FLAG (C); made in house; host or cells: baculovirus-transfected insect cells (Hi5)
# Description: The basic principle of the assay is the measurement of adenosine diphosphate (ADP), which is formed as a by-product, by means of an HTRF®-based competitive immunoassay (HTRF=Homogeneous Time Resolved Fluorescence).
# The amount of complex of d2-labelled ADP and europium cryptate-labelled anti-ADP antibody was then determined by measuring the resonance energy transfer of europium cryptate to d2.
# [2] = biological target: T2, ACC2 (acetyl-CoA carboxylase 2) (Homo sapiens, UniProt O00763); assay: Human ACC2 enzyme assay (HTRF ADP detection); format: biochemical; conditions: 20 μM acetyl-CoA, 15 min pre-incubation, 20 min at 22° C.; read-out: ACC 2 IC50
# T2 construct: catalogue no; 50201, amino acids 39—end, expressed in baculovirus-transfected Sf9 insect cells; His (C); purchased BPS Bioscience (San Diego, Calif.) 50201; host or cells: baculovirus-transfected Sf9 insect cells
# T2 sequence (O00763 39-2458 limits assumed): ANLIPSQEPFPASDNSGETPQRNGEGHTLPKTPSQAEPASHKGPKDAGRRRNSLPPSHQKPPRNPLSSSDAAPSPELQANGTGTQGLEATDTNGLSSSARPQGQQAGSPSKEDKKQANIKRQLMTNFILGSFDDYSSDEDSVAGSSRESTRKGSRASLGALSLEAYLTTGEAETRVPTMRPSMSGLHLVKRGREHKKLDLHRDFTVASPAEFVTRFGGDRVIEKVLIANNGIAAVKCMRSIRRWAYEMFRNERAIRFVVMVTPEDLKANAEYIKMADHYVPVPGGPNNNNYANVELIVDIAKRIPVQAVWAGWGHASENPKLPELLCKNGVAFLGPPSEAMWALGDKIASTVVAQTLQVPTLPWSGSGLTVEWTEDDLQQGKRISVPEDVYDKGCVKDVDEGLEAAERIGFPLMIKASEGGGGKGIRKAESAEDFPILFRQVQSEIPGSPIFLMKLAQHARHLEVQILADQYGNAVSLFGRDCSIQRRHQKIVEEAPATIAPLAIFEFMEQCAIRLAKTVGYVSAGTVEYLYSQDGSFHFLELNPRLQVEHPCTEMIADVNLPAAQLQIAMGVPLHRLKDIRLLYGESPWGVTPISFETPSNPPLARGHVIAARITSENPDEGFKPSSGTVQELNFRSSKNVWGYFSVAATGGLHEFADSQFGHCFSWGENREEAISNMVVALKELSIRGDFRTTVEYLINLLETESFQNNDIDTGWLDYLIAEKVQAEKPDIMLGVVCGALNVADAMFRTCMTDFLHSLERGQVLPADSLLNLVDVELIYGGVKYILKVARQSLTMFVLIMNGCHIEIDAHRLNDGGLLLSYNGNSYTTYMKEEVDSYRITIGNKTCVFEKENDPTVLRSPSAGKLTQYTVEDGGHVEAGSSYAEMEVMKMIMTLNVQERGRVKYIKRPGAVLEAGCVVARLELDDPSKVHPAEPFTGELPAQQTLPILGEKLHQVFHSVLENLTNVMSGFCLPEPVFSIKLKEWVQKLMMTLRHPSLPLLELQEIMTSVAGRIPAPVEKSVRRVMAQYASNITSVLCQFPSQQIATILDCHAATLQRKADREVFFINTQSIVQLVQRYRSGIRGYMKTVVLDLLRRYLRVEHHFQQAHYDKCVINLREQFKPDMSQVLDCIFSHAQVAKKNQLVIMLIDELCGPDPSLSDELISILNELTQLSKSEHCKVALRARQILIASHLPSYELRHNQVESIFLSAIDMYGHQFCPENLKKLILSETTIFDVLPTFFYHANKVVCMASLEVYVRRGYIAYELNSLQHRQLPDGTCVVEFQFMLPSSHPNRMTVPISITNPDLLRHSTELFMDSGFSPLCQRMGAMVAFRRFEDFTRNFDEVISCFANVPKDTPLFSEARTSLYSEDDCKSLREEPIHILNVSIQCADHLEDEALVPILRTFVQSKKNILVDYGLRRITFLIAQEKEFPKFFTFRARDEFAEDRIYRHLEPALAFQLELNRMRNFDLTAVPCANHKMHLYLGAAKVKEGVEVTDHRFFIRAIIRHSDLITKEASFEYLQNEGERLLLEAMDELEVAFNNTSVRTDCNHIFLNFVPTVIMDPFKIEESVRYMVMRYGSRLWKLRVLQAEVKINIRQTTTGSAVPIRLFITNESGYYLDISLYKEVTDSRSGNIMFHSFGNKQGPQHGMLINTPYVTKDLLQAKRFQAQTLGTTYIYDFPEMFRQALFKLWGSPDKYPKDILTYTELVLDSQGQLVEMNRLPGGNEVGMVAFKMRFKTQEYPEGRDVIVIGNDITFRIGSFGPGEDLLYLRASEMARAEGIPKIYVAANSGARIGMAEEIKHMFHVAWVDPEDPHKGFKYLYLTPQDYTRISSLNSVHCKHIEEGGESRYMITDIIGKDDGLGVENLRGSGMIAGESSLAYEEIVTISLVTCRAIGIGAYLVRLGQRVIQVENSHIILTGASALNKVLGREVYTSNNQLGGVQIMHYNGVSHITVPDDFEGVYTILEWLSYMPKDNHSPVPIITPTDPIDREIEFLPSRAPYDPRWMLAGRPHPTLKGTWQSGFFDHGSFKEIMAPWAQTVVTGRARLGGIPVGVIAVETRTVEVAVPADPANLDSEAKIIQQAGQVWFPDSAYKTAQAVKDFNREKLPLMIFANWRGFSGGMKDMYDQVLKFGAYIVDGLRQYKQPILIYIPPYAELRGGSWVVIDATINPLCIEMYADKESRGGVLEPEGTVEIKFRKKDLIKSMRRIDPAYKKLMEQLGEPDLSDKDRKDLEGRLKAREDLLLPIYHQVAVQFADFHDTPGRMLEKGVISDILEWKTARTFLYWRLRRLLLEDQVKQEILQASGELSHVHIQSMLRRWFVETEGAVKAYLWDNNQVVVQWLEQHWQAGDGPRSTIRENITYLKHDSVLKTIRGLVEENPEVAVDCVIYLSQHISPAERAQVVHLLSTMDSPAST
SMILES,IC50 [1] [nM],IC50 [2] [nM]
"Cc1ccc(-c2ccc(F)cc2)cc1C1=C(O)C2(CCC(OCC(F)(F)F)CC2)NC1=O (stereo not shown) [Example 1-32, 3-(4′-fluoro-4-methylbiphenyl-3-yl)-4-hydroxy-8-(2,2,2-trifluoroethoxy)-1-azaspiro[4.5]dec-3-en-2-one]",860,14000
"Cc1ccc(-c2cc(F)c(F)c(F)c2)cc1C1=C(O)C2(CCOCC2)NC1=O [Example 1-36, 4-hydroxy-3-(3′,4′,5′-trifluoro-4-methylbiphenyl-3-yl)-8-oxa-1-azaspiro[4.5]dec-3-en-2-one]",792,> 20000
"CCCC1CCC2(CC1)OC(=O)C(c1cc(-c3ccc(Cl)cc3)ccc1C)=C2O (stereo not shown) [Example 2-36, 3-(4′-chloro-4-methylbiphenyl-3-yl)-4-hydroxy-8-propyl-1-oxaspiro[4.5]dec-3-en-2-one]",,1940
"Cc1cc(C)c(-c2ccc(Cl)cc2)c(C)c1C1=C(O)C2(CCCC2)OC1=O [Example 2-49, 3-(4′-chloro-2,4,6-trimethylbiphenyl-3-yl)-4-hydroxy-1-oxaspiro[4.4]non-3-en-2-one]",5780,1280
"Cc1ccc(-c2ccc(Cl)cc2)cc1C1=C(O)C2(CCC3(CC2)OCC(C)(C)CO3)NC1=O [Example 1-67, 3-(4′-chloro-4-methylbiphenyl-3-yl)-4-hydroxy-11,11-dimethyl-9,13-dioxa-1-azadispiro[4.2.5.2]pentadec-3-en-2-one]",668,1440
"Cc1ccc(-c2ccc(F)cc2F)cc1C1C(=O)N2CCOCCN2C1=O [Example 8-5, 8-(2′,4′-difluoro-4-methylbiphenyl-3-yl)tetrahydro-7H-pyrazolo[1,2-d][1,4,5]oxadiazepine-7,9(8H)-dione]",2080,> 20000
"Cc1ccc(-c2ccc(Cl)cc2)cc1C1C(=O)N2CCCCN2C1=O [Example 8-3, 2-(4′-chloro-4-methylbiphenyl-3-yl)tetrahydro-1H-pyrazolo[1,2-a]pyridazine-1,3(2H)-dione]",1140,> 20000
"O=C1NC2(CCOCC2)C(O)=C1c1cc(-c2ccc(F)cc2)ccc1Cl [Example 1-41, 3-(4-chloro-4′-fluorobiphenyl-3-yl)-4-hydroxy-8-oxa-1-azaspiro[4.5]dec-3-en-2-one]",751,> 20000
"COCCC1CCC2(CC1)NC(=O)C(c1c(C)ccc(-c3ccc(Cl)cc3)c1C)=C2O (stereo not shown) [Example 1-57, 3-(4′-chloro-2,4-dimethylbiphenyl-3-yl)-4-hydroxy-8-(2-methoxyethyl)-1-azaspiro[4.5]dec-3-en-2-one]",790,220
"Cc1ccc(-c2ccc(Cl)cc2)cc1C1=C(O)C2(CCCCC2)OC1=O [Example 2-10, 3-(4′-chloro-4-methylbiphenyl-3-yl)-4-hydroxy-1-oxaspiro[4.5]dec-3-en-2-one]",161,2350
"Cc1ccc(-c2cccc(Cl)c2)cc1C1=C(O)C2(CCCCC2)CC1=O [Example 6-3, 3-(3′-chloro-4-methylbiphenyl-3-yl)-4-hydroxyspiro[4.5]dec-3-en-2-one]",1390,16200
"Cc1cc(C)c(-c2ccc(Cl)cc2)cc1C1=C(O)C2(CCCCCC2)OC1=O [Example 2-43, 3-(4′-chloro-4,6-dimethylbiphenyl-3-yl)-4-hydroxy-1-oxaspiro[4.6]undec-3-en-2-one]",504,330
"COCC1CCC2(CC1)NC(=O)C(c1c(C)ccc(-c3ccc(Cl)cc3)c1C)=C2O (stereo not shown) [Example 1-53, 3-(4′-chloro-2,4-dimethylbiphenyl-3-yl)-4-hydroxy-8-(methoxymethyl)-1-azaspiro[4.5]dec-3-en-2-one]",506,214
"Cc1ccc(-c2ccc(Cl)c(Cl)c2)cc1-c1c(O)c2ccc(Cl)cc2[nH]c1=O [Example 9-7, 7-chloro-3-(3′,4′-dichloro-4-methylbiphenyl-3-yl)-4-hydroxyquinolin-2(1H)-one]",,8290
"Cc1ccc(-c2ccc(Cl)cc2)cc1C1=C(O)C2(CCCC(C)C2)NC1=O (stereo not shown) [Example 1-82, 3-(4′-chloro-4-methylbiphenyl-3-yl)-4-hydroxy-7-methyl-1-azaspiro[4.5]dec-3-en-2-one]",542,433
"COC1CCCC2(C1)NC(=O)C(c1c(C)ccc(-c3ccc(Cl)cc3)c1C)=C2O (stereo not shown) [Example 1-72, 3-(4′-chloro-2,4-dimethylbiphenyl-3-yl)-4-hydroxy-7-methoxy-1-azaspiro[4.5]dec-3-en-2-one]",1180,2340
"Cc1ccc(-c2ccc(Cl)cc2)cc1C1=C(O)C2(CC2)OC1=O [Example 2-8, 6-(4′-chloro-4-methylbiphenyl-3-yl)-7-hydroxy-4-oxaspiro[2.4]hept-6-en-5-one]",420,> 20000

SMILES,IC50 [1] [nM],IC50 [2] [nM]
"Cc1ccc(-c2ccc(Cl)cc2)cc1C1=C(O)C2(CCCCC2)SC1=O [Example 3-2, 3-(4′-chloro-4-methylbiphenyl-3-yl)-4-hydroxy-1-thiaspiro[4.5]dec-3-en-2-one]",97,1670
"CCOCCO[C@@H]1CC[C@@]2(C1)NC(=O)C(c1cc(-c3ccc(Cl)cc3)ccc1C)=C2O (relative stereo) [Example 1-50, rel-(5R,7S)-3-(4′-chloro-4-methylbiphenyl-3-yl)-7-(2-ethoxyethoxy)-4-hydroxy-1-azaspiro[4.4]non-3-en-2-one]",472,6270
"Cc1ccc(-c2ccc(Cl)cc2)cc1C1=C(O)CN(CC(C)C)C1=O [Example 1-27, 3-(4′-chloro-4-methylbiphenyl-3-yl)-4-hydroxy-1-(2-methylpropyl)-1,5-dihydro-2H-pyrrol-2-one]",472,> 20000
"Cc1ccc(-c2ccc(Cl)cc2)cc1C1=C(O)C2(CCC(C)(C)CC2)NC1=O [Example 1-20, 3-(4′-chloro-4-methylbiphenyl-3-yl)-4-hydroxy-8,8-dimethyl-1-azaspiro[4.5]dec-3-en-2-one]",240,214
"Cc1ccc(-c2ccc(Cl)cc2)cc1C1=C(O)C(C)(C)C(C)(C)OC1=O [Example 10-2, 3-(4′-chloro-4-methylbiphenyl-3-yl)-4-hydroxy-5,5,6,6-tetramethyl-5,6-dihydro-2H-pyran-2-one]",586,> 20000
"COCC1CCC2(CC1)NC(=O)C(c1cc(-c3ccc(Cl)cc3)ccc1C)=C2O (stereo not shown) [Example 1-56, 3-(4′-chloro-4-methylbiphenyl-3-yl)-4-hydroxy-8-(methoxymethyl)-1-azaspiro[4.5]dec-3-en-2-one]",430,320
"Cc1ccc(-c2ccc(Cl)cc2)cc1C1C(=O)N2C3CCC(C3)N2C1=O (stereo not shown) [Example 8-16, 2-(4′-chloro-4-methylbiphenyl-3-yl)tetrahydro-1H-5,8-methanopyrazolo[1,2-a]pyridazine-1,3(2H)-dione]",662,> 20000
"COCCC1CCCC2(C1)NC(=O)C(c1c(C)ccc(-c3ccc(Cl)cc3)c1C)=C2O (stereo not shown) [Example 1-55, 3-(4′-chloro-2,4-dimethylbiphenyl-3-yl)-4-hydroxy-7-(2-methoxyethyl)-1-azaspiro[4.5]dec-3-en-2-one]",918,465
"Cc1ccc(-c2ccc(Cl)cc2)c(C)c1C1=C(O)C2(CCOCC2)NC1=O [Example 1-1, 3-(4′-chloro-2,4-dimethylbiphenyl-3-yl)-4-hydroxy-8-oxa-1-azaspiro[4.5]dec-3-en-2-one]",460,8800
"Cc1cc(C)c(-c2ccc(Cl)cc2)cc1C1=C(O)C2(CCCOC2)NC1=O (stereo not shown) [Example 1-8, 3-(4′-chloro-4,6-dimethylbiphenyl-3-yl)-4-hydroxy-7-oxa-1-azaspiro[4.5]dec-3-en-2-one]",790,810
"Cc1ccc(-c2ccc(Cl)cc2)cc1C1=C(O)C(C(C)(C)C)OC1=O (stereo not shown) [Example 2-35, 5-tert-butyl-3-(4′-chloro-4-methylbiphenyl-3-yl)-4-hydroxyfuran-2(5H)-one]",1020,> 20000
"CC1(C)COC2(CCC3(CC2)NC(=O)C(c2cc(-c4ccc(Cl)cc4)ccc2Cl)=C3O)OC1 [Example 1-65, 3-(4,4′-dichlorobiphenyl-3-yl)-4-hydroxy-11,11-dimethyl-9,13-dioxa-1-azadispiro[4.2.5.2]pentadec-3-en-2-one]",934,9470
"Cc1ccc(-c2ccc(Cl)cc2)cc1C1=C(O)C2(CC2)NC1=O [Example 1-84, 6-(4′-chloro-4-methylbiphenyl-3-yl)-7-hydroxy-4-azaspiro[2.4]hept-6-en-5-one]",455,
"Cc1cc(C)c(-c2c(O)c3ccc(Cl)cc3[nH]c2=O)cc1-c1ccc(Cl)cc1 [Example 9-12, 7-chloro-3-(4′-chloro-4,6-dimethylbiphenyl-3-yl)-4-hydroxyquinolin-2(1H)-one]",580,
"COC1CCC2(CC1)SC(=O)C(c1cc(-c3ccc(Cl)cc3)ccc1C)=C2O (stereo not shown) [Example 3-1, 3-(4′-chloro-4-methylbiphenyl-3-yl)-4-hydroxy-8-methoxy-1-thiaspiro[4.5]dec-3-en-2-one]",853,
"Cc1ccc(-c2ccc(Cl)cc2)c(C)c1C1=C(O)C2(CCC3(CC2)OCC(C)O3)NC1=O (stereo not shown) [Example 1-62, 11-(4′-chloro-2,4-dimethylbiphenyl-3-yl)-12-hydroxy-2-methyl-1,4-dioxa-9-azadispiro[4.2.4.2]tetradec-11-en-10-one]",690,
"COC1CCC2(CC1)NC(=O)C(c1cc(-c3ccc(Cl)c(Cl)c3)ccc1C)=C2O (stereo not shown) [Example 1-81, 3-(3′,4′-dichloro-4-methylbiphenyl-3-yl)-4-hydroxy-8-methoxy-1-azaspiro[4.5]dec-3-en-2-one]",,1410
